Patent US20260224602A1, “METHODS AND PHARMACEUTICAL COMPOSITIONS FOR TREATING DEMENTIA” (Neurxstem, priority 2023, published 2026)
Structures can show the parent of a compound that is named as a salt. Where two headings read alike, the source gives them in different places.

Assays:
[1] = cited from earlier work
adenosine A2A receptor = settings: Zochi et al., 1996, cited from earlier work
[2] = test system: AD-NNOP-APP neural organoids; assay: PF-3845 effect on gene expression in AD-NNOP-APP neural organoids (Ampliseq transcriptomics); type: cell-based, human
Description: Neural Organoids derived from induced pluripotent stem cells derived from adult skin cells of AD, ADRD or MED patients were grown in vitro for 4 weeks as previous described in U.S. Pat. No. 11,435,890, incorporated by reference in its entirety herein. Transcriptomic data from these neural organoids were obtained. Differences in expression of 20,814 genes expressed in the human genome were determined between these neural organoids and those from neural organoids from a normal individual human (an individual not having/diagnosed with AD, ADRD, or MED). Detailed data analysis using Gene Card and Pubmed data bases were performed. […] These genes comprise a suite of biomarkers for Alzheimer's disease.
(§1) Human induced pluripotent stem cell-derived neural organoids were generated according to the following protocol, as set forth in U.S. Pat. No. 11,435,890, incorporated by reference in its entirety herein. Briefly, irradiated murine embryonic fibroblasts (MEF) were plated on a gelatin coated substrate in MEF media (Dulbecco's Modified Eagle Medium (DMEM) supplemented with 10% Fetal Bovine Serum, 100 units/ml penicillin, 100 microgram/ml streptomycin, and 0.25 microgram/ml Fungizone) at a density of 2×10^5 cells per well. The seeded plate was incubated at 37° C. overnight.
It is known that FAAH inhibitor PF-3845 will raise endogenous levels of endocannabinoid anandamide receptor agonist anandamide. Consequently, PF-3845 treatment can increase endocannabinoid anandamide receptor activity despite dementia-associated downregulation. […] AD-NNOP-APP neural organoids were incubated with vehicle (0.1% DMSO; control) or PF-3845 dissolved in DMSO at 10 µM for 4 days and harvested for RNA extraction and gene expression analysis by Ampliseq™ (Thermofisher). Log2 fold change with a positive value indicates a […] in expression of an AD-NNOP gene when compared to Normal-NNOP and with a negative number an increase in gene expression. […] The expression of these genes were known to be increased in AD-NNOP-APP compared to normal (data not shown). Thus, PF-3845 or FAAH inhibitor was effective in reverting the biomarkers of AD to normalcy.

[3] = test system: AD-NNOP-SPOR neural organoids; assay: CGS-21680 effect on gene expression in AD-NNOP-SPOR neural organoids (Ampliseq transcriptomics); type: cell-based, human
Description: Neural Organoids derived from induced pluripotent stem cells derived from adult skin cells of AD, ADRD or MED patients were grown in vitro for 4 weeks as previous described in U.S. Pat. No. 11,435,890, incorporated by reference in its entirety herein. Transcriptomic data from these neural organoids were obtained. Differences in expression of 20,814 genes expressed in the human genome were determined between these neural organoids and those from neural organoids from a normal individual human (an individual not having/diagnosed with AD, ADRD, or MED). Detailed data analysis using Gene Card and Pubmed data bases were performed.
as §1
In Table 1, the effect of A2A receptor agonist to reverse the aberrant expression of the biomarkers in AD disease was assessed. […] Log2 fold change with a positive value indicates a […] in expression of an AD-NNOP gene when compared to Normal-NNOP and a negative number indicates an increase in gene expression.

[4] = AD-NNOP-APP >12 weeks in culture, PF-3845 10 µM 4 days vs vehicle (0.1% DMSO), positive = decrease in expression
[5] = AD-NNOP-SPOR, CGS-21680 1 μM 4 days vs vehicle

CCNC(=O)[C@H]1O[C@@H](n2cnc3c(N)nc(C#CC[C@H]4CC[C@H](C(=O)OC)CC4)nc32)[C@H](O)[C@@H]1O [apadenoson, methyl (1R,4r)-4-(3-(6-amino-9-((2R,3R,4S,5S)-5-(ethylcarbamoyl)-3,4-dihydroxytetrahydrofuran-2-yl)-9H-purin-2-yl)prop-2-yn-1-yl)cyclohexane-1-carboxylate]
solubility in DMSO ([1]; MedKoo Biosciences): Soluble in DMSO

O=C(Nc1cccnc1)N1CCC(Cc2cccc(Oc3ccc(C(F)(F)F)cn3)c2)CC1 [PF-3845]
effect on expression of measured AD biomarker genes ([2]; AD-NNOP APP, PF-3845 compared to control treatment): expression of the measured genes were decreased | ADM log2 Fold Change [2, 4]: 2.14 | BGN log2 Fold Change [2, 4]: 2.50 | CD36 log2 Fold Change [2, 4]: 2.86 | MAP3K19 log2 Fold Change [2, 4]: 2.56 | SLC16A3 log2 Fold Change [2, 4]: 2.05 | number of differentially expressed genes vs control group ([2]; AD-NNOP-APP, PF-3845 10 µM 4 days vs vehicle): 2111 genes

CCNC(=O)[C@H]1O[C@@H](n2cnc3c(N)nc(NCCc4ccc(CCC(=O)O)cc4)nc32)[C@H](O)[C@@H]1O [CGS-21680, 2-p-(2-Carboxyethyl) phenethylamino-5′-N-ethylcarboxamidoadenosine hydrochloride hydrate]
effect on TBX3 expression ([3]; AD-NNOP SPOR, compared to control treatment): decreased TBX3 expression | effect on expression of abnormal AD genes [3, 5]: invert the expression of the abnormal genes in AD and revert them back to normalcy | number of differentially expressed genes vs control group [3, 5]: 2023 genes | solubility in 45% (w/v) aq 2-hydroxypropyl-β-cyclodextrin ([1]; 45% (w/v) aq 2-hydroxypropyl-β-cyclodextrin): ≤ 20 mg/mL | solubility in DMSO [1]: up to 3.4 mg/mL
